Patent US20120029187A1, “HALOALKYLSULFONANILIDE DERIVATIVE” (Nissan Chemical Industries, Ltd., priority 2009, published 2012)

Assays:
Format in all cases: in vivo
transplanted rice = test: Test Example 1: preemergence treatment under submerged conditions, effect on crop; details: dose 2.52 g/a
In short: (§1)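 Submerged conditions, 4 cm water over alluvial soil. Weeds sown and 2.5-leaf rice transplanted; compound applied preemergence to water surface, doses in g per are. Greenhouse, 25 to 30° C., three weeks, then 0–5 mortality rating.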

ducksalad [1] = test: Test Example 2: herbicidal effects during the vegetation period under submerged conditions; details: treatment during the vegetation period under submerged conditions; dose 2.52 g/a
In short: (§2)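 Barnyardgrass, bulrush and ducksalad were co-sown in alluvial soil flooded to 4 cm and grown in a greenhouse at 25 to 30° C. At the 1- or 2-leaf stage, water-diluted emulsifiable concentrates went onto the water surface at set doses (g/a). Herbicidal effect was scored three weeks later on a graded scale.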

bulrush [2] = test: as above; details: treatment during the vegetation period under submerged conditions; dose 2.52 g/a
In short: as §2

barnyardgrass [3] = test: as above; details: treatment during the vegetation period under submerged conditions; dose 2.52 g/a
In short: as §2

ducksalad [4] = test: Test Example 1: herbicidal effects in preemergence treatment under submerged conditions; details: dose 2.52 g/a
In short: as §1

bulrush [5] = test: as above; details: dose 2.52 g/a
In short: as §1

barnyardgrass [6] = test: as above; details: dose 2.52 g/a
In short: as §1

giant foxtail [7] = test: Test Example 4: herbicidal effect in foliage treatment; details: dose 3.2 g/a, three weeks after application
In short: (§3)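 Sowing in sterilized diluvial soil, ~1.5 cm cover; growth 14 d, 25–30° C greenhouse; foliar spray of water-diluted EC at predetermined g/a; scoring 3 wk later on graded scale.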

common lambsquater [8] = test: as above; details: dose 3.2 g/a, three weeks after application
In short: as §3

redroot pigweed [9] = test: as above; details: dose 3.2 g/a, three weeks after application
In short: as §3

velvetleaf [10] = test: as above; details: dose 3.2 g/a, three weeks after application
In short: as §3

common ragweed [11] = test: as above; details: dose 3.2 g/a, three weeks after application
In short: as §3

large crabgrass [12] = test: as above; details: dose 3.2 g/a, three weeks after application
In short: as §3

posumbu knotweed [13] = test: as above; details: dose 3.2 g/a, three weeks after application
In short: as §3

Italian ryegrass [14] = test: as above; details: dose 3.2 g/a, three weeks after application
In short: as §3

water foxtail [15] = test: as above; details: dose 3.2 g/a, three weeks after application
In short: as §3

common chickweed [16] = test: as above; details: dose 3.2 g/a, three weeks after application
In short: as §3

barnyardgrass [17] = test: as above; details: dose 3.2 g/a, three weeks after application
In short: as §3

beadstraw = test: as above; details: dose 3.2 g/a, three weeks after application
In short: as §3

giant foxtail [18] = test: Test Example 3: herbicidal effects in soil treatment; details: dose 3.2 g/a
In short: (§4)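 Seeds were sown in sterilized diluvial soil and covered with about 1.5 cm of soil. Compounds, formulated as emulsifiable concentrates and diluted with water, were sprayed evenly over the soil surface at set doses in g/a. Herbicidal effect was scored on a rating scale three weeks later.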

common lambsquater [19] = test: as above; details: dose 3.2 g/a
In short: as §4

redroot pigweed [20] = test: as above; details: dose 3.2 g/a
In short: as §4

velvetleaf [21] = test: as above; details: dose 3.2 g/a
In short: as §4

common ragweed [22] = test: as above; details: dose 3.2 g/a
In short: as §4

large crabgrass [23] = test: as above; details: dose 3.2 g/a
In short: as §4

posumbu knotweed [24] = test: as above; details: dose 3.2 g/a
In short: as §4

Italian ryegrass [25] = test: as above; details: dose 3.2 g/a
In short: as §4

water foxtail [26] = test: as above; details: dose 3.2 g/a
In short: as §4

common chickweed [27] = test: as above; details: dose 3.2 g/a
In short: as §4

barnyardgrass [28] = test: as above; details: dose 3.2 g/a
In short: as §4

Compound	a: transplanted rice, effect on crop (evaluation scale 0-5) (transplanted rice)	C: ducksalad, herbicidal effect (evaluation scale 0-5) (ducksalad [1])	B: bulrush, herbicidal effect (evaluation scale 0-5) (bulrush [2])	A: barnyardgrass, herbicidal effect (evaluation scale 0-5) (barnyardgrass [3])	C: ducksalad, herbicidal effect (evaluation scale 0-5) (ducksalad [4])	B: bulrush, herbicidal effect (evaluation scale 0-5) (bulrush [5])	A: barnyardgrass, herbicidal effect (evaluation scale 0-5) (barnyardgrass [6])	E: giant foxtail, herbicidal effect (giant foxtail [7])	L: common lambsquater, herbicidal effect (common lambsquater [8])	K: redroot pigweed, herbicidal effect (redroot pigweed [9])	I: velvetleaf, herbicidal effect (velvetleaf [10])	J: common ragweed, herbicidal effect (common ragweed [11])	D: large crabgrass, herbicidal effect (large crabgrass [12])	M: posumbu knotweed, herbicidal effect (posumbu knotweed [13])	H: Italian ryegrass, herbicidal effect (Italian ryegrass [14])	G: water foxtail, herbicidal effect (water foxtail [15])	N: common chickweed, herbicidal effect (common chickweed [16])	A: barnyardgrass, herbicidal effect (barnyardgrass [17])	O: beadstraw, herbicidal effect (beadstraw)	E: giant foxtail, herbicidal effect (evaluation scale 0-5) (giant foxtail [18])	other results
CCOC(=O)N(c1ccccc1CN1COC(C)(CC(F)(F)F)CC1=O)S(=O)(=O)C(F)(F)F (centres unmarked) [II-53]	0 (mortality of less than 5% (almost ineffective))	5 (mortality of 90% or above (nearly complete death))	5 (mortality of 90% or above (nearly complete death))	5 (mortality of 90% or above (nearly complete death))	5 (mortality of 90% or above (nearly complete death))	5 (mortality of 90% or above (nearly complete death))	5 (mortality of 90% or above (nearly complete death))	3 (mortality of at least 40% and less than 70%)	2 (mortality of at least 20% and less than 40%)	0 (mortality of less than 5% (almost ineffective))	4 (mortality of at least 70% and less than 90%)	3 (mortality of at least 40% and less than 70%)	3 (mortality of at least 40% and less than 70%)	4 (mortality of at least 70% and less than 90%)	4 (mortality of at least 70% and less than 90%)	5 (mortality of 90% or above (nearly complete death))	5 (mortality of 90% or above (nearly complete death))	4 (mortality of at least 70% and less than 90%)	5 (mortality of 90% or above (nearly complete death))	5 (mortality of 90% or above (nearly complete death))	L: common lambsquater, herbicidal effect (evaluation scale 0-5) (common lambsquater [19]): 0 (mortality of less than 5% (almost ineffective)); K: redroot pigweed, herbicidal effect (evaluation scale 0-5) (redroot pigweed [20]): 0 (mortality of less than 5% (almost ineffective)); I: velvetleaf, herbicidal effect (evaluation scale 0-5) (velvetleaf [21]): 5 (mortality of 90% or above (nearly complete death)); J: common ragweed, herbicidal effect (evaluation scale 0-5) (common ragweed [22]): 4 (mortality of at least 70% and less than 90%); D: large crabgrass, herbicidal effect (evaluation scale 0-5) (large crabgrass [23]): 5 (mortality of 90% or above (nearly complete death)); M: posumbu knotweed, herbicidal effect (evaluation scale 0-5) (posumbu knotweed [24]): 5 (mortality of 90% or above (nearly complete death)); H: Italian ryegrass, herbicidal effect (evaluation scale 0-5) (Italian ryegrass [25]): 3 (mortality of at least 40% and less than 70%); G: water foxtail, herbicidal effect (evaluation scale 0-5) (water foxtail [26]): 5 (mortality of 90% or above (nearly complete death)); N: common chickweed, herbicidal effect (evaluation scale 0-5) (common chickweed [27]): 5 (mortality of 90% or above (nearly complete death)); A: barnyardgrass, herbicidal effect (evaluation scale 0-5) (barnyardgrass [28]): 5 (mortality of 90% or above (nearly complete death))
CCC(=O)N(c1ccccc1CN1COC(C)(C(F)(F)F)CC1=O)S(=O)(=O)C(F)(F)F (centres unmarked) [II-47]	0 (mortality of less than 5% (almost ineffective))	5 (mortality of 90% or above (nearly complete death))	5 (mortality of 90% or above (nearly complete death))	4 (mortality of at least 70% and less than 90%)	5 (mortality of 90% or above (nearly complete death))	5 (mortality of 90% or above (nearly complete death))	5 (mortality of 90% or above (nearly complete death))	2 (mortality of at least 20% and less than 40%)	0 (mortality of less than 5% (almost ineffective))	0 (mortality of less than 5% (almost ineffective))	4 (mortality of at least 70% and less than 90%)	2 (mortality of at least 20% and less than 40%)	1 (mortality of at least 5% and less than 20%)	2 (mortality of at least 20% and less than 40%)	0 (mortality of less than 5% (almost ineffective))	2 (mortality of at least 20% and less than 40%)	3 (mortality of at least 40% and less than 70%)	4 (mortality of at least 70% and less than 90%)	4 (mortality of at least 70% and less than 90%)	4 (mortality of at least 70% and less than 90%)	L: common lambsquater, herbicidal effect (evaluation scale 0-5) (common lambsquater [19]): 3 (mortality of at least 40% and less than 70%); K: redroot pigweed, herbicidal effect (evaluation scale 0-5) (redroot pigweed [20]): 0 (mortality of less than 5% (almost ineffective)); I: velvetleaf, herbicidal effect (evaluation scale 0-5) (velvetleaf [21]): 4 (mortality of at least 70% and less than 90%); J: common ragweed, herbicidal effect (evaluation scale 0-5) (common ragweed [22]): 4 (mortality of at least 70% and less than 90%); D: large crabgrass, herbicidal effect (evaluation scale 0-5) (large crabgrass [23]): 5 (mortality of 90% or above (nearly complete death)); M: posumbu knotweed, herbicidal effect (evaluation scale 0-5) (posumbu knotweed [24]): 3 (mortality of at least 40% and less than 70%); H: Italian ryegrass, herbicidal effect (evaluation scale 0-5) (Italian ryegrass [25]): 3 (mortality of at least 40% and less than 70%); G: water foxtail, herbicidal effect (evaluation scale 0-5) (water foxtail [26]): 5 (mortality of 90% or above (nearly complete death)); A: barnyardgrass, herbicidal effect (evaluation scale 0-5) (barnyardgrass [28]): 5 (mortality of 90% or above (nearly complete death))
